What was measured:
[1] = system: barnyard grass; experiment: Test Example 3: herbicidal effect by foliage application, Wagner pot (Table 18, symbol H); type: in vivo, barnyard grass (Echinochloa crus-galli); details: amount of applied herbicide 320 g/ha
Method in brief: (§1)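 Plants were sown in alluvial soil held under 0.1–0.5 cm standing water and grown 14 days in a greenhouse at 25–30 °C. An emulsifiable formulation, water-diluted to the set dose, was then sprayed onto the foliage, and effects were scored three weeks later using previously defined criteria.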

[2] = system: Chinese sprangletop; experiment: Test Example 3: herbicidal effect by foliage application, Wagner pot (Table 18, symbol D); type: in vivo, chinese sprangletop (Leptochloa chinensis); details: amount of applied herbicide 320 g/ha
Method in brief: as §1

[3] = system: rice flat sedge; experiment: Test Example 3: herbicidal effect by foliage application, Wagner pot (Table 18, symbol E); type: in vivo, rice flat sedge (Cyperus iria); details: amount of applied herbicide 320 g/ha
Method in brief: as §1

[4] = system: southern crabgrass; experiment: Test Example 4: herbicidal effect by soil treatment (Table 19, symbol F); type: in vivo, southern crabgrass (Digitaria ciliaris); details: amount of applied herbicide 320 g/ha
Method in brief: (§2)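 Herbicidal effect was rated 3 weeks after treatment, using the scoring criteria of an earlier test. The compound, formulated as an emulsion and diluted in water to a set herbicide amount, had been sprayed uniformly on soil over freshly sown seeds. Growth took place in a greenhouse at 25° C. to 30° C.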

[5] = system: green foxtail; experiment: Test Example 4: herbicidal effect by soil treatment (Table 19, symbol G); type: in vivo, green foxtail (Setaria viridis); details: amount of applied herbicide 320 g/ha
Method in brief: as §2

[6] = system: barnyard grass; experiment: Test Example 4: herbicidal effect by soil treatment (Table 19, symbol H); type: in vivo, barnyard grass (Echinochloa crus-galli); details: amount of applied herbicide 320 g/ha
Method in brief: as §2

[7] = system: wild oat; experiment: Test Example 4: herbicidal effect by soil treatment (Table 19, symbol I); type: in vivo, wild oat (Avena fatua); details: amount of applied herbicide 320 g/ha
Method in brief: as §2

[8] = system: blackgrass; experiment: Test Example 4: herbicidal effect by soil treatment (Table 19, symbol J); type: in vivo, blackgrass (Alopecurus myosuroides); details: amount of applied herbicide 320 g/ha
Method in brief: as §2

[9] = system: Italian ryegrass; experiment: Test Example 4: herbicidal effect by soil treatment (Table 19, symbol K); type: in vivo, Italian ryegrass (Lolium multiflorum); details: amount of applied herbicide 320 g/ha
Method in brief: as §2

[10] = system: windgrass; experiment: Test Example 4: herbicidal effect by soil treatment (Table 19, symbol L); type: in vivo, windgrass (Apera spica-venti); details: amount of applied herbicide 320 g/ha
Method in brief: as §2

[11] = system: velvetleaf; experiment: Test Example 4: herbicidal effect by soil treatment (Table 19, symbol M); type: in vivo, velvetleaf (Abutilon theophrasti); details: amount of applied herbicide 320 g/ha
Method in brief: as §2

[12] = system: redroot pigweed; experiment: Test Example 4: herbicidal effect by soil treatment (Table 19, symbol N); type: in vivo, redroot pigweed (Amaranthus retroflexus); details: amount of applied herbicide 320 g/ha
Method in brief: as §2

[13] = system: lambsquarters; experiment: Test Example 4: herbicidal effect by soil treatment (Table 19, symbol O); type: in vivo, lambsquarters (Chenopodium album); details: amount of applied herbicide 320 g/ha
Method in brief: as §2

[14] = system: chickweed; experiment: Test Example 4: herbicidal effect by soil treatment (Table 19, symbol P); type: in vivo, common chickweed (Stellaria media); details: amount of applied herbicide 320 g/ha
Method in brief: as §2

[15] = system: persian speedwell; experiment: Test Example 4: herbicidal effect by soil treatment (Table 19, symbol R); type: in vivo, Persian speedwell (Veronica persica); details: amount of applied herbicide 320 g/ha
Method in brief: as §2

[16] = system: southern crabgrass; experiment: Test Example 5: herbicidal effect by foliage application, plastic box (Table 20, symbol F); type: in vivo, southern crabgrass (Digitaria ciliaris); details: foliage application, 320 g/ha, evaluated three weeks after application
Method in brief: (§3)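 Foliar spray test: emulsion formulation diluted in water to a set application rate, sprayed onto 14-day-old plants raised in diluvial soil at 25° C to 30° C under glass. Both herbicidal effect and crop effect rated visually three weeks later.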

[17] = system: green foxtail; experiment: Test Example 5: herbicidal effect by foliage application, plastic box (Table 20, symbol G); type: in vivo, green foxtail (Setaria viridis); details: foliage application, 320 g/ha, evaluated three weeks after application
Method in brief: as §3

[18] = system: barnyard grass; experiment: Test Example 5: herbicidal effect by foliage application, plastic box (Table 20, symbol H); type: in vivo, barnyard grass (Echinochloa crus-galli); details: foliage application, 320 g/ha, evaluated three weeks after application
Method in brief: as §3

[19] = system: wild oat; experiment: Test Example 5: herbicidal effect by foliage application, plastic box (Table 20, symbol I); type: in vivo, wild oat (Avena fatua); details: foliage application, 320 g/ha, evaluated three weeks after application
Method in brief: as §3

[20] = system: blackgrass; experiment: Test Example 5: herbicidal effect by foliage application, plastic box (Table 20, symbol J); type: in vivo, blackgrass (Alopecurus myosuroides); details: foliage application, 320 g/ha, evaluated three weeks after application
Method in brief: as §3

[21] = system: Italian ryegrass; experiment: Test Example 5: herbicidal effect by foliage application, plastic box (Table 20, symbol K); type: in vivo, Italian ryegrass (Lolium multiflorum); details: foliage application, 320 g/ha, evaluated three weeks after application
Method in brief: as §3

[22] = system: windgrass; experiment: Test Example 5: herbicidal effect by foliage application, plastic box (Table 20, symbol L); type: in vivo, windgrass (Apera spica-venti); details: foliage application, 320 g/ha, evaluated three weeks after application
Method in brief: as §3

[23] = system: velvetleaf; experiment: Test Example 5: herbicidal effect by foliage application, plastic box (Table 20, symbol M); type: in vivo, velvetleaf (Abutilon theophrasti); details: foliage application, 320 g/ha, evaluated three weeks after application
Method in brief: as §3

[24] = system: redroot pigweed; experiment: Test Example 5: herbicidal effect by foliage application, plastic box (Table 20, symbol N); type: in vivo, redroot pigweed (Amaranthus retroflexus); details: foliage application, 320 g/ha, evaluated three weeks after application
Method in brief: as §3

[25] = system: lambsquarters; experiment: Test Example 5: herbicidal effect by foliage application, plastic box (Table 20, symbol O); type: in vivo, lambsquarters (Chenopodium album); details: foliage application, 320 g/ha, evaluated three weeks after application
Method in brief: as §3

[26] = system: chickweed; experiment: Test Example 5: herbicidal effect by foliage application, plastic box (Table 20, symbol P); type: in vivo, common chickweed (Stellaria media); details: foliage application, 320 g/ha, evaluated three weeks after application
Method in brief: as §3

[27] = system: false cleavers; experiment: Test Example 5: herbicidal effect by foliage application, plastic box (Table 20, symbol Q); type: in vivo, false cleavers (Galium spurium); details: foliage application, 320 g/ha, evaluated three weeks after application
Method in brief: as §3

[28] = system: persian speedwell; experiment: Test Example 5: herbicidal effect by foliage application, plastic box (Table 20, symbol R); type: in vivo, Persian speedwell (Veronica persica); details: foliage application, 320 g/ha, evaluated three weeks after application
Method in brief: as §3

| SMILES | herbicidal effect on H: barnyard grass [1] | herbicidal effect on D: Chinese sprangletop [2] | herbicidal effect on E: rice flat sedge [3] | F: southern crabgrass, herbicidal effect rating [4] | G: green foxtail, herbicidal effect rating [5] | H: barnyard grass, herbicidal effect rating [6] | I: wild oat, herbicidal effect rating [7] | J: blackgrass, herbicidal effect rating [8] | K: Italian ryegrass, herbicidal effect rating [9] | L: windgrass, herbicidal effect rating [10] | M: velvetleaf, herbicidal effect rating [11] | N: redroot pigweed, herbicidal effect rating [12] | O: lambsquarters, herbicidal effect rating [13] | P: chickweed, herbicidal effect rating [14] | R: persian speedwell, herbicidal effect rating [15] | further results |
| --- | --- | --- | --- | --- | --- | --- | --- | --- | --- | --- | --- | --- | --- | --- | --- | --- |
| COc1ccc(-c2sc3ccc(Cl)cc3c2-c2c(O)c(C)nn(C)c2=O)cc1OC [2-123] | 3 (Herbicidal rate of 40% or more and less than 70%) | 0 (Herbicidal rate of 5% or less (almost no effect)) | 5 (Herbicidal rate of 90% or more (almost completely withered)) | 0 (Herbicidal rate of 5% or less (almost no effect)) | 0 (Herbicidal rate of 5% or less (almost no effect)) | 0 (Herbicidal rate of 5% or less (almost no effect)) | 0 (Herbicidal rate of 5% or less (almost no effect)) | 0 (Herbicidal rate of 5% or less (almost no effect)) | 0 (Herbicidal rate of 5% or less (almost no effect)) | 0 (Herbicidal rate of 5% or less (almost no effect)) | 0 (Herbicidal rate of 5% or less (almost no effect)) | 0 (Herbicidal rate of 5% or less (almost no effect)) | 4 (Herbicidal rate of 70% or more and less than 90%) | 3 (Herbicidal rate of 40% or more and less than 70%) | 4 (Herbicidal rate of 70% or more and less than 90%) | herbicidal effect on F: southern crabgrass [16]: 0 (Herbicidal rate of 5% or less (almost no effect)); herbicidal effect on G: green foxtail [17]: 0 (Herbicidal rate of 5% or less (almost no effect)); herbicidal effect on H: barnyard grass [18]: 0 (Herbicidal rate of 5% or less (almost no effect)); herbicidal effect on I: wild oat [19]: 0 (Herbicidal rate of 5% or less (almost no effect)); herbicidal effect on J: blackgrass [20]: 4 (Herbicidal rate of 70% or more and less than 90%); herbicidal effect on K: Italian ryegrass [21]: 2 (Herbicidal rate of 20% or more and less than 40%); herbicidal effect on L: windgrass [22]: 1 (Herbicidal rate of 5% or more and less than 20%); herbicidal effect on M: velvetleaf [23]: 3 (Herbicidal rate of 40% or more and less than 70%); herbicidal effect on N: redroot pigweed [24]: 0 (Herbicidal rate of 5% or less (almost no effect)); herbicidal effect on O: lambsquarters [25]: 2 (Herbicidal rate of 20% or more and less than 40%); herbicidal effect on P: chickweed [26]: 5 (Herbicidal rate of 90% or more (almost completely withered)); herbicidal effect on Q: false cleavers [27]: 1 (Herbicidal rate of 5% or more and less than 20%); herbicidal effect on R: persian speedwell [28]: 5 (Herbicidal rate of 90% or more (almost completely withered)) |
| CCCOc1cccc(-c2sc3ccc(F)cc3c2-c2c(OC(=O)CCC)c(C)nn(C)c2=O)c1 [2-214] | 3 (Herbicidal rate of 40% or more and less than 70%) | 3 (Herbicidal rate of 40% or more and less than 70%) | 4 (Herbicidal rate of 70% or more and less than 90%) | 4 (Herbicidal rate of 70% or more and less than 90%) | 4 (Herbicidal rate of 70% or more and less than 90%) | 3 (Herbicidal rate of 40% or more and less than 70%) | 0 (Herbicidal rate of 5% or less (almost no effect)) | 0 (Herbicidal rate of 5% or less (almost no effect)) | 0 (Herbicidal rate of 5% or less (almost no effect)) | 0 (Herbicidal rate of 5% or less (almost no effect)) | 3 (Herbicidal rate of 40% or more and less than 70%) | 5 (Herbicidal rate of 90% or more (almost completely withered)) | 2 (Herbicidal rate of 20% or more and less than 40%) | 3 (Herbicidal rate of 40% or more and less than 70%) | 5 (Herbicidal rate of 90% or more (almost completely withered)) | herbicidal effect on F: southern crabgrass (criteria 0-5) [16]: 4 (Herbicidal rate of 70% or more and less than 90%); herbicidal effect on G: green foxtail (criteria 0-5) [17]: 4 (Herbicidal rate of 70% or more and less than 90%); herbicidal effect on H: barnyard grass (criteria 0-5) [18]: 1 (Herbicidal rate of 5% or more and less than 20%); herbicidal effect on I: wild oat (criteria 0-5) [19]: 0 (Herbicidal rate of 5% or less (almost no effect)); herbicidal effect on J: blackgrass (criteria 0-5) [20]: 0 (Herbicidal rate of 5% or less (almost no effect)); herbicidal effect on K: Italian ryegrass (criteria 0-5) [21]: 1 (Herbicidal rate of 5% or more and less than 20%); herbicidal effect on L: windgrass (criteria 0-5) [22]: 0 (Herbicidal rate of 5% or less (almost no effect)); herbicidal effect on M: velvetleaf (criteria 0-5) [23]: 3 (Herbicidal rate of 40% or more and less than 70%); herbicidal effect on N: redroot pigweed (criteria 0-5) [24]: 4 (Herbicidal rate of 70% or more and less than 90%); herbicidal effect on O: lambsquarters (criteria 0-5) [25]: 2 (Herbicidal rate of 20% or more and less than 40%); herbicidal effect on P: chickweed (criteria 0-5) [26]: 5 (Herbicidal rate of 90% or more (almost completely withered)); herbicidal effect on Q: false cleavers (criteria 0-5) [27]: 2 (Herbicidal rate of 20% or more and less than 40%); herbicidal effect on R: persian speedwell (criteria 0-5) [28]: 5 (Herbicidal rate of 90% or more (almost completely withered)) |

From patent US20230085307A1, “PYRIDAZINONE COMPOUND AND HERBICIDE” (NISSAN CHEMICAL CORPORATION, priority 2019, published 2023)
